Here are results for six molecules from patent EP1229025A1, “NOVEL QUINAZOLINE DERIVATIVES” (Japan Energy Corporation, priority 1999, dated 2001).

Holding throughout (assay type): cell-based
In experiment [1] the test system is TNF-α production. The experiment is described as follows: TNF-α production inhibiting test using human PBMC (LPS stimulus, ELISA). Conditions: LPS 10 ng/ml, 16 hours, ELISA of culture supernatants. The method, then: Example 145: TNF-α production inhibiting test using human PBMC (peripheral blood mononuclear cells)
Preparation of human PBMC
The blood of a healthy person was taken with a vacuum blood-collecting tube (Nipro neotube) and diluted up to two-fold with physiological saline (Otsuka Pharmaceuticals). To the diluted blood was added 6% dextran T-500 (prepared after dissolution in physiological saline (Otsuka Pharmaceuticals) and sterilization with an autoclave) so as to make a final concentration of 1%. The solution was subjected to tumble mixing and allowed to stand at room temperature for 30 minutes to precipitate the erythrocytes. The supernatant was collected and subjected to centrifugation at 20 °C and at 1,500 rpm for 10 minutes. The cells were suspended in 3 ml of RPMI1640 culture medium (Asahi Technogllas) and overlaid on the solution surface of 3 ml Lymphoprep (NYCOMED). Further, with 1.5 ml of RPMI1640 culture medium being added to the tube which had contained the cell suspension liquid, the cells attached to the tube, which had remained uncollected, were suspended for collection and overlaid on the Lymphoprep previously mentioned. This operation was repeated again. After centrifugation at 20 °C and at 2,000 rpm for 30 minutes, there was collected a fraction of peripheral blood mononuclear cells present in the boundary surface between the Lymphoprep and the RPMI1640 culture medium. The cells were washed twice with 10 ml RPMI1640 culture medium to remove the Lymphoprep and then suspended in a RPMI1640 culture medium added with 10% bovine fetal serum (IRVINE SCIENTIFIC), 100 U/ml penicillin and 100 µg/ml streptomycin (hereinafter referred to as cRPMI1640 culture medium). The number of the cells was measured by Tuerk dying, and the cells, after adjustment to 3 × 10^6 cells/ml, were planted in 100 µl/well on a 96-well plate (FALCON). The cells were cultured at 37 °C under 5%CO2 atmosphere for about 5 hours.
Induction of TNF-α production by LPS stimulus
LPS (E.coli 0111:B4, DIFCO), which had been prepared to 10 mg/ml with water and kept at -20, was diluted to 100 µg/ml with cRPMI1640 culture medium and subjected to sterile filtration. The 100 µg/ml LPS was diluted with cRPMI1640 culture medium to prepare 20 ng/ml LPS. A compound to be tested which was dissolved in DMSO at 1,000-fold concentration was diluted to 500-fold with cRPMI1640 culture medium containing 20 ng/ml LPS and added in 100 µl/well to the cells which had been planted on the previously mentioned 96-well plate (final concentration of LPS: 10 ng/ml). For use as the control group, the solutions were made by diluting DMSO of the same volume as in the test compounds with cRPMI1640 culture medium containing 20 ng/ml LPS, and they were added to the cells. These cells were cultured at 37 °C under 5%CO2 atmosphere for 16 hours.
Determination of TNF-α activity (ELISA method)
To the 96-well plate the mouse anti-human TNF-α antibody (prepared to 2 µg/ml with Coating buffer*^1) was added so as to make 100 µl/well and allowed to stand at 4 °C overnight. After 5-times washing with Wash buffer*^2 (300µl/well), the Blocking buffer*^3 was added to the solutions, which were allowed to stand 37 °C for 2 hours. The culture supernatants were diluted up to 5-fold in the plate (supernatant 20 µl being added to 80 µl of cRPMI1640 culture medium). Simultaneously, for using for a calibration curve, a series of dilution of recombinant human TNF-α was prepared arid allowed to stand 37 °C for 1 hour. After 5-times washing with Wash buffer (300 µl /well), biotinylated rabbit anti-human TNF-α antibody (prepared to 0.25 µg/ml with Antibody diluent*^4) was added so as to make 100 µl /well and allowed to stand at 37 °C for 1 hour. After 5-times washing with Wash buffer (300 µl /well), Streptavidin-Horseradish peroxidase(prepared to 1:4000 with Antibody diluent) was added to make 100 µl /well and allowed to stand at 37 °C for 15 minutes. […]

Experiment [2] relates to IL-4 production. The experiment is described as follows: IL-4 production inhibiting test in OVA-stimulated spleen cells of immunised mouse (ELISA). Particulars: 72 h, spleen cells of OVA-immunised BALB/c-mouse, OVA 0.5 mg/ml, 3 days. As to the method:
(§1) Example 146: IL-4 and IL-5 production inhibiting test
(§2) A 6-weeks-old BALB/c-mouse (Nippon Charles River) was bred preparatively for 1 week and given at the day 0 and day 14 intraperitoneal injection of 100 µl PBS to give immunity which PBS contained 0.1 mg/ml of Ovalbumin(OVA) and 40 mg/ml of aluminum hydroxide. At the day 21 the spleen was taken out from the mouse. The spleen was dissected with a pincette in cooled PBS, passed through a mesh and subjected to centrifugation at 4 °C at 1,500 rpm for 5 minutes. The cells was added with 5 ml of 0.2% NaCI to destroy erythrocytes, and then was made isotonic by adding 5 ml of 1.6% of NaCl. After centrifugation at 4 °C, 1,500 rpm for 5 minutes, the cells were washed twice with 10 ml ofRPMI1640 culture medium. The obtained spleen cells were suspended in cRPMI1640 medium, and the number of the cells was measured by Tuerk dying. After being adjusted to 1 × 10^7 cells/ml, the cells were planted in 100 µl/well on a 96-well plate (FALCON). The cells were cultured at 37 °C under 5% CO2 atmosphere for about 4 hours. OVA was prepared to 10 mg/ml with cRPMI1640 culture medium and subjected to sterile filtration. The 10 mg/ml OVA was diluted with cRPMI1640 culture medium to give 1 mg/ml OVA. A compound to be tested which was dissolved in DMSO in at 1,000-fold concentration was diluted up to 500-fold with cRPMI1640 culture medium containing 1 mg/ml OVA and added in 100 µl/well to the cells which had been planted on the previously mentioned 96-well plate (final concentration of OVA: 0.5 mg/ml). As the controls, the solutions were made by diluting DMSO of the same volume as with the test compounds with cRPMI1640 culture medium containing 1 mg/ml OVA, and they were added to the cells. These cells were cultured at 37 °C under 5%CO2 atmosphere for 3 days. IL-4 and IL-5 in the culture supernatants after 3 days were quantitatively determined by ELISA method. IL-4 and IL-5 were quantitatively determined using IL-4 Development Kit (Genzyme Techne) and mouse IL-5 MiniKit (ENDOGEN), respectively. The production inhibiting rates of each tested compound against IL-4 are shown in Table 22, those against IL-5 in Table 23.
(In general: ELISA stands for enzyme-linked immunosorbent assay.)

For experiment [3], the system named is IL-5 production. Put plainly: IL-5 production inhibiting test in OVA-stimulated spleen cells of immunised mouse (ELISA). Conditions: 72 h, spleen cells of OVA-immunised BALB/c-mouse, OVA 0.5 mg/ml, 3 days. The method, then: as §1, §2

Turning to `O=[N+]([O-])c1cc2c(NCc3ccc4c(c3)OCO4)ncnc2cc1N1CCNCC1` [Example 31, 4-[3,4-(methylenedioxy)benzylamino]-6-nitro-7-(piperazin-1-yl)quinazoline], the IC50 – broadly, the concentration at which inhibition is half-maximal – in experiment [1] worked out at 80 nM; in experiment [2], 10 nM; in experiment [3], 200 nM.

Take `O=[N+]([O-])c1cc2c(NCc3cccs3)ncnc2cc1N1CCNCC1` [Example 48, 6-nitro-7-(piperazin-1-yl)-4-[(2-thienyl)methylamino]quinazoline]: the IC50 in experiment [2] came out at 100 nM; in experiment [3], 900 nM.

For `O=[N+]([O-])c1cc2c(NCc3ccccc3F)ncnc2cc1N1CCNCC1` [Example 61, 4-(2-fluorobenzylamino)-6-nitro-7-(piperazin-1-yl)quinazoline], the results for the IC50 in experiment [1], in experiment [2] and in experiment [3] were 300 nM, 200 nM and 2000 nM, respectively.

Turning to `O=[N+]([O-])c1cc2c(NCc3cccc(F)c3)ncnc2cc1N1CCNCC1` [Example 62, 4-(3-fluorobenzylamino)-6-nitro-7-(piperazin-1-yl)quinazoline], the IC50 is 300 nM in experiment [1], 100 nM in experiment [2] and 1400 nM in experiment [3].

`CCOC(=O)c1ccc(CNc2ncnc3cc(N4CCNCC4)c([N+](=O)[O-])cc23)cc1` [Example 129, 4-[(4-ethoxycarbonyl)benzylamino]-6-nitro-7-(piperazin-1-yl)quinazoline]: the IC50 in experiment [1] came out at 200 nM; in experiment [2] it was 100 nM; in experiment [3], 1700 nM.

In the case of `CC(C)(C)c1cc(CNc2ncnc3cc(N4CCNCC4)c([N+](=O)[O-])cc23)cc(C(C)(C)C)c1O` [Example 131, 4-[(3,5-di-tert-butyl-4-hydroxy)benzylamino]-6-nitro-7-(piperazin-1-yl)quinazoline], the IC50 was determined as 300 nM in experiment [1], 200 nM in experiment [2] and 1400 nM in experiment [3].
